Laboratory results published in ChEMBL document CHEMBL6177923, “Novel rhodanine-thiazole hybrids as potential antidiabetic agents: a structure-based drug design approach” (RSC Med Chem, 2025).
The source made the active and inactive calls. No cut-off for these calls is given here.

Assays:
[1] = system: L929; test: Cytotoxicity against mouse L929 cells by MTT assay; assay type: toxicity, cell-based
[2] = target: Lysosomal alpha-glucosidase (Homo sapiens, UniProt P10253); test: Inhibition of human lysosomal alpha-glucosidase preincubated for 10 mins followed by p-nitrophenyl-alpha-D glucopyranoside addition and measured after 30 mins by absorbance based analysis
[3] = system: HepG2; test: Upregulation of PPAR-gamma expression in human HepG2 cells by RayBio PPAR-gamma TF activity assay; assay type: functional, cell-based; conditions: dose 6.25-100 µM

Row | IC50 [2] [µM] | inhibition ([2]; time 40.0 min) | SMILES | Activity [1] | Activity [3]
1 | 106 |  | Cc1ccc(-c2csc(N/N=C/c3ccc(/C=C4\SC(=S)NC4=O)cc3)n2)cc1 | Non-toxic | 
2 | 62.1 |  | O=C(O)CN1C(=O)/C(=C/c2ccc(/C=N/Nc3nc(-c4ccc(Cl)cc4)cs3)cc2)SC1=S | Non-toxic | 
3 | 63.2 |  | COc1ccc(-c2csc(N/N=C/c3ccc(/C=C4\SC(=S)N(CC(=O)O)C4=O)cc3)n2)cc1 | Non-toxic | 
4 | 32.2 |  | O=C1NC(=S)S/C1=C\c1ccc(/C=N/Nc2nc(-c3ccc(Br)cc3)cs2)cc1 | Non-toxic | Dose-dependent-effect
5 | 46 |  | COc1ccc(-c2csc(N/N=C/c3ccc(/C=C4\SC(=S)NC4=O)cc3)n2)cc1 | Non-toxic | 

The remaining lines, values behind:

Row | SMILES | IC50 [2] [µM] | inhibition ([2]; time 40.0 min) | Activity [1] | Activity [3]
6 | O=C1NC(=S)S/C1=C\c1ccc(/C=N/Nc2nc(-c3ccc(F)cc3)cs2)cc1 | 148 |  | Non-toxic | 
7 | O=C1NC(=S)S/C1=C\c1ccc(/C=N/Nc2nc(-c3ccccc3)cs2)cc1 | 55.2 |  | Non-toxic | 
8 | O=C1NC(=S)S/C1=C\c1ccc(/C=N/Nc2nc(-c3ccc(Cl)cc3)cs2)cc1 | 33.2 |  | Non-toxic | Dose-dependent-effect
9 | Cc1ccc(-c2csc(N/N=C/c3ccc(/C=C4\SC(=S)N(CC(=O)O)C4=O)cc3)n2)cc1 |  | inactive | Non-toxic | 
10 | O=C(O)CN1C(=O)/C(=C/c2ccc(/C=N/Nc3nc(-c4ccc(Br)cc4)cs3)cc2)SC1=S | 24.2 |  | Non-toxic | 
11 | O=C(O)CN1C(=O)/C(=C/c2ccc(/C=N/Nc3nc(-c4ccccc4)cs3)cc2)SC1=S | 29.1 |  | Non-toxic | 
12 | O=C(O)CN1C(=O)/C(=C/c2ccc(/C=N/Nc3nc(-c4ccc(F)cc4)cs3)cc2)SC1=S | 52 |  | Non-toxic | 
